Values belong to the molecule of their own block, whether it stands above or below them.
How the values were obtained:
[1] = Weight changes and hematologic parameters in mice bearing SCCVII carcinomas; assay type: in vivo, C3H mice; conditions: for % Weight change / Granulocytes / Lymphocytes / Platelets: median (range)
Experimental: (§1) C3H mice bearing subcutaneously implanted SCCVII squamous cell carcinomas implanted on the dorsal thorax were given a total dose of 450 milligrams porphyrin compound VII per kilogram body weight (70 mg B/kg) via 6 i.p. injections given over a period of 2 days (3/day over 8 hours). Mice were given porphyrin XXIII at a total dose of 160 mg/kg (36 mg/kg B) via 3 i.p. injections given over a period of 8 hours. At one and two days after the last injection, mice were euthanized, and tumor, blood, brain, and liver were removed for boron analyses. The blood was first analyzed for hematologic parameters that indicate toxicity before it was analyzed for boron.

[2] = system: SCCVII squamous cell carcinomas; test: Biodistribution of porphyrins in mice bearing SCCVII squamous cell carcinomas; assay type: in vivo, C3H mice; conditions: for Average boron concentration, SCCVII Tumor: wet tissue
Experimental: (§2) Porphyrin compounds (VII, XII, XXIII) were emulsified in 3% Cremophor EL and 6% propylene glycol in saline.
(§3) To prepare a solution of ˜3.5 mg/mL porphyrin in 3% Cremophor EL (CRM) and 6% propylene glycol (PRG), the porphyrin was dissolved in tetrahydrofuran (THF) (1.5% of the total volume) and then heated to 40° C. for 15 min. CRM (3% of total volume) was then added and the mixture was heated to 60° C. for 2 hours, which removed most of the THF. After cooling to room temperature, PRG (6% of total volume) was added, followed by slow dropwise addition of saline (89.5% of total volume) with rapid stirring. The solution was degassed by stirring under vacuum (˜30 mm Hg) for 30-60 min and then filtered (Millipore, 8 μm).
as §1

[3] = system: tumors; conditions: in vivo; cited from earlier work
[4] = Weight changes and hematologic parameters in mice bearing EMT-6 carcinomas; assay type: in vivo, BALB/c mice; conditions: median (range), 5 mice
Experimental: (§4) BALB/c mice bearing subcutaneously implanted EMT-6 mammary carcinomas implanted on the dorsal thorax were given a total dose of 200-230 milligrams porphyrin compound (VII or XII) per kilogram body weight (32-37 mg B/kg). Mice were given six intraperitoneal injections over a 2-day period with 3 injections per day at 4-hour intervals. At one and two days after the last injection, mice were euthanized, and tumor, blood, brain, and liver were removed for boron analyses by direct current-plasma-atomic-emission spectrometry (DCP-AES). The blood was first analyzed for hematologic parameters that indicate toxicity before it was analyzed for boron.

[5] = system: EMT-6 mammary carcinomas; test: Biodistribution of porphyrins in mice bearing EMT-6 carcinomas (boron by DCP-AES); assay type: in vivo, BALB/c mice; conditions: n = 5; for Average boron concentration, EMT-6 Tumor: wet tissue
Experimental: as §2, §3, §4

[6] = 180 mg/kg (39 mg B/kg) per table title, 160 mg/kg in text, i.p., 1 d after last injection, 4 mice
[7] = 180 mg/kg (39 mg B/kg) per table title, 160 mg/kg in text, i.p., 2 d after last injection, 4 mice
[8] = 160 mg/kg (36 mg B/kg in title, 160/39 in table) in 3 i.p. injections over 8 hours, 1 d after last injection, 4 mice
[9] = 160 mg/kg (36 mg B/kg in title, 160/39 in table) in 3 i.p. injections over 8 hours, 2 d after last injection, 4 mice
[10] = 230 mg/kg i.p., 1 d after last injection
[11] = 230 mg/kg i.p., 2 d after last injection
[12] = 230 mg/kg (37 mg B/kg) in 6 i.p. injections over 2 days, 1 d after last injection
[13] = 230 mg/kg (37 mg B/kg) in 6 i.p. injections over 2 days, 2 d after last injection
[14] = 450 mg/kg (70 mg B/kg) i.p., 1 d after last injection, 5 mice
[15] = 200 mg/kg i.p., 1 d after last injection
[16] = 200 mg/kg i.p., 2 d after last injection
[17] = 450 mg/kg (70 mg B/kg) in 6 i.p. injections over 2 days, 1 d after last injection, 5 mice
[18] = 200 mg/kg (32 mg B/kg) in 6 i.p. injections over 2 days, 1 d after last injection
[19] = 200 mg/kg (32 mg B/kg) in 6 i.p. injections over 2 days, 2 d after last injection

% Weight change [1, 6]: 0.5 (−1.9-3.2) % | Granulocytes [1, 6]: 43 (32-46) % WBC | Lymphocytes [1, 6]: 53 (48-64) % WBC | Platelets [1, 6]: 775 (618-881) 10^3/mm^3 | % Weight change [1, 7]: 3.2 (0.9-6.3) % | Granulocytes [1, 7]: 39 (36-43) % WBC | Lymphocytes [1, 7]: 57 (51-59) % WBC | Platelets [1, 7]: 655 (610-723) 10^3/mm^3 | Average boron concentration, Blood [2, 8]: 0.6 ± 0.1 µg/g | Average boron concentration, Brain [2, 8]: 0.1 ± 0.0 µg/g | Average boron concentration, Liver [2, 8]: 540 ± 32 µg/g | Average boron concentration, Blood [2, 9]: 0.3 ± 0 µg/g | Average boron concentration, Brain [2, 9]: 0.0 ± 0.0 µg/g | Average boron concentration, Liver [2, 9]: 534 ± 59 µg/g | Average boron concentration, SCCVII Tumor [2, 8]: 16.9 ± 2.6 µg/g | Average boron concentration, SCCVII Tumor [2, 9]: 14.5 ± 2.9 µg/g
Molecule: copper (II) meso-5,15-bis[m-(3,5-di-o-carboranylmethoxybenzyloxy)phenyl]-10,20-bis[3-(β-D-glucosyl)phenyl]porphyrin [Porphyrin XXIII]
platelet count in comparison with the control mice ([1]; moderately high dose of 160 mg/kg): did not show any decrease in platelet count

Molecule: N[C@@H](Cc1ccc(B(O)O)cc1)C(=O)O [BPA, p-boronophenylalanine]
chemical toxicity [3]: low chemical toxicity

% Weight change [4, 10]: 1.2 (−3.5-4.8) % | Granulocytes [4, 10]: 61 (38-71) % WBC | Lymphocytes [4, 10]: 36 (26-59) % WBC | Platelets [4, 10]: 962 (944-1306) 10^3/mm^3 | % Weight change [4, 11]: 3.4 (−2.2-4.8) % | Granulocytes [4, 11]: 43 (34-76) % WBC | Lymphocytes [4, 11]: 54 (22-63) % WBC | Platelets [4, 11]: 797 (736-877) 10^3/mm^3
Molecule: Copper (II) meso-5,15-bis[3-(o-carboranylmethoxy)phenyl]-10,20-bis[3-(β-D-galactose)phenyl]porphyrin [Porphyrin XII]
Average boron concentration, Blood [5, 12]: 0.4 ± 0.1 μg B/g | Average boron concentration, Brain [5, 12]: 0.0 ± 0.1 μg B/g | Average boron concentration, Liver [5, 12]: 473 ± 102 μg B/g | Average boron concentration, Blood [5, 13]: 0.2 ± 0.1 μg B/g | Average boron concentration, Brain [5, 13]: 0.0 ± 0.1 μg B/g | Average boron concentration, Liver [5, 13]: 354 ± 352 μg B/g | Average boron concentration, EMT-6 Tumor [5, 12]: 16.7 ± 8.3 μg B/g | Average boron concentration, EMT-6 Tumor [5, 13]: 12.6 ± 5.2 μg B/g

% Weight change [1, 14]: −1.2 (−2.6-1.9) % | Granulocytes [1, 14]: 46 (41-50) % WBC | Lymphocytes [1, 14]: 50 (46-56) % WBC | Platelets [1, 14]: 739 (628-751) 10^3/mm^3 | thrombocytopenia ([1]; very high dose of 450 mg/kg): no thrombocytopenia | % Weight change [4, 15]: −0.18 (−5.6-4.7) % | Granulocytes [4, 15]: 49 (43-61) % WBC | Lymphocytes [4, 15]: 47 (37-54) % WBC | Platelets [4, 15]: 504 (111-783)* 10^3/mm^3 | % Weight change [4, 16]: 3.5 (−1.5-3.9) % | Granulocytes [4, 16]: 45 (40-54) % WBC | Lymphocytes [4, 16]: 52 (44-56) % WBC | Platelets [4, 16]: 935 (840-1039) 10^3/mm^3 | Average boron concentration, Blood [2, 17]: 1.0 ± 0.1 µg/g | Average boron concentration, Brain [2, 17]: 0.3 ± 0.1 µg/g | Average boron concentration, Liver [2, 17]: 787 ± 70 µg/g | Average boron concentration, SCCVII Tumor [2, 17]: 29.1 ± 7.9 µg/g
Molecule: copper (II) meso-5,15-bis[3-(o-carboranylmethoxy)phenyl]-10,20-bis[3-(β-D-glucosyl)phenyl]porphyrin [Porphyrin VII]
Average boron concentration, Blood [5, 18]: 0.4 ± 0.1 μg B/g | Average boron concentration, Brain [5, 18]: 0.0 ± 0.0 μg B/g | Average boron concentration, Liver [5, 18]: 457 ± 74 μg B/g | Average boron concentration, Blood [5, 19]: 0.2 ± 0.0 μg B/g | Average boron concentration, Brain [5, 19]: 0.0 ± 0.0 μg B/g | Average boron concentration, Liver [5, 19]: 492 ± 83 μg B/g | Average boron concentration, EMT-6 Tumor [5, 18]: 20.2 ± 6.3 μg B/g | Average boron concentration, EMT-6 Tumor [5, 19]: 19.0 ± 5.4 μg B/g

Reference: patent US20080279781A1, “Glycosylated Carboranylporphyrins and Uses Thereof” (Brookhaven Science Associates, LLC, priority 2007, published 2008)
